Assays:
[1] = system: insulin sensitivity in db/db diabetic mice; assay: hyperinsulinemic-euglycemic clamp; format: in vivo; conditions: oral gavage 14 days; insulin 10 mU/kg/min
Protocol: Glucose lowering in 8 week old db/db diabetic mice. The hyperinsulinemic-euglycemic clamp protocol was conducted to measure insulin sensitivity in vivo. In this procedure, insulin was administered to raise the insulin concentration while glucose was infused to maintain euglycemia or a fixed, normal blood glucose level (about 180 mg/dL). […] The objective of this protocol was to investigate characterize the capacity of 17α-ethynylandrost-5-ene-3β,7β,17β-triol and androst-5-ene-3β,7β,16α,17β-tetrol to ameliorate systemic insulin resistance and improve whole body glucose disposal in the hyperinsulinemic-euglycemic clamp model. The degree of skeletal muscle and hepatic insulin sensitivity and tissue specific glucose uptake were also assessed. The animals were dosed daily by oral gavage for 14 days. On Day 10 of treatment catheters were implanted in the carotid artery and jugular vein. On the day of the clamp (day 14) the compound was administered at 7:30 am.
Body weight and glucose concentration were assessed on day 0, 7 and day 14 of treatment. On day 14 a euglycemic hyperinsulinemic clamp was performed. Food was removed at 7:30 am at 10:30 a primed continuous infusion of [3-^3H]-glucose (0.05 μCi/min). A baseline blood sample was taken at 12:50 (−10 min) and at 1:00 (0 min) a euglycemic hyperinsulinemic clamp was initiated by administering 10 mU /kg/min of insulin. Glucose was infused at a variable rate to clamp the glucose concentration at ˜180 mg/dl. A bolus of [^14C]-2deoxyglucose was given at the end of the study to assess tissue specific glucose uptake. Plasma ^14C 2-deoxyglucose was assessed at 122, 125, 130, 135, 145 min. […]
Analysis was conducted as follows. Plasma samples were deproteinized with Ba(OH)2 (0.3 N) and ZnSO4 (0.3 N), dried and radioactivity was assessed on scintillation counter (Packard TRICARB 2900 TR, Meriden, Conn.). […] One supernatant was directly counted to determine radioactivity from both [14C] […] A second aliquot was treated with Ba(OH)2 and ZnSO4 to remove ^14C DGP and any tracer incorporated into glycogen and then counted to determine radioactivity from free [^14C]DG(2). [^14C]DGP was calculated as the difference between the two aliquots. […] Rg, an index of tissue specific glucose uptake was calculated as previously described (E.W. Kraegen et al., Am. J. Physiol., 248:E353-E362, 1985). Whole body glucose turnover was calculated as the ratio of the ^3H glucose infusion rate (dpm/kg/min) and arterial plasma glucose specific activity (dpm/mg). Endogenous glucose production was calculated as the difference between the whole body glucose turnover and the exogenous glucose infusion rate (R. N. Bergman et al., Endocr. Rev., 6:45-86, 1985).

[2] = system: human MG-63 osteosarcoma cell line; assay: reversal of dexamethasone effects in MG-63 osteoblasts; format: cell-based; conditions: 30 nM dexamethasone; compound concentration stated with each value (17α-ethynyl triol: 1 nM)
[3] = system: popliteal lymph node cells; assay: reporter antigen popliteal lymph node (PLN) assay; format: in vivo, BALB/C mice
From the text: Analysis of immune suppression. Glucocorticoid steroids such as dexamethasone or hydrocortisone are typically immune suppressive and have significant toxicities associated with their use. Immune suppression was examined in a reporter antigen popliteal lymph node assay in mice essentially as previously described (C. Goebel et al., Inflamm. Res., 45(Suppl. 2):S85-S90, 1996; R. Pieters et al., Environmental Health Perspectives 107(Suppl. 5):673-677, 1999). […] In this protocol, the vehicle was 0.1% carboxymethylcellulose, 0.9% saline, 2% tween 80 and 0.05% phenol, which contained 17α-ethynylandrost-5-ene-3β,7β,17β-triol in suspension in drug treated animals. Assessment of activity included (1) measuring suppression of numbers of total lymphocytes, antigen specific IgM, IgG1 and IgG2a antibody secreting cells (ASC) (ELISPOT assay) in popliteal lymph node cells; (2) analysis of cell surface marker (CD4, CD8, CD19, F480, CD80, CD86) expression by flow cytometry of living cells in suspension; and (3) IL-4, TNFα and IFNγ production by lymphocytes in vitro (ELISA).
Groups (n=5 per group) of specific pathogen free BALB/C mice were used. The Positive control group was treated with vehicle (oral gavage) and 5 μg/day dexamethasone by subcutaneous injection to induce immune suppression. Vehicle control animals (negative control) were treated with vehicle alone (oral gavage). One group of animals was treated with 17α-ethynylandrost-5-ene-3β,7β,17β-triol at 0.1 mg/day by oral gavage. Another group was treated with 1 mg/day of 17α-ethynylandrost-5-ene-3β,7β,17β-triol was administered to the animals oral gavage. The results were analyzed by two-tailed Student's t-test with equal variance. The animals were injected in the right hind footpad with 50 μL of freshly prepared sensitizing dose of TNP-OVA. […] Single cell suspensions were prepared, resuspended in 1 mL PBS-BSA (1%) and counted. Cell numbers, IL-4, IL-5 and IFNγ were measured.

[4] = system: glucose intolerance in DIO mice; assay: diet induced obesity (DIO) mouse hyperglycemia treatment; format: in vivo; conditions: 20, 40 or 80 mg/kg twice a day up to 28 days
From the text: Diet induced obesity (DIO) mouse hyperglycemia treatment. The effect of a drug to enhance peripheral sensitivity to insulin can be studied in a mouse model in which a state of insulin resistance is attained by feeding the animals a fat-enriched diet (60% of total caloric intake) for at least 6 weeks. This model has been described, e.g., J. N. Thupari et al., Proc. Natl. Acad. Sci. USA, 99(14):9498-9502, 2002, H. Xu et al., J. Clin. Invest., 112:1821-1830, 2003, H. Takahashi et al., J. Biol. Chem., 278(47):46654-46660, 2003.
For these studies, animals of approximately […] of age were divided into groups of 10 animals each and then treated with a vehicle control (no drug) or 17α-ethynylandrost-5-ene-3β,7β,17β-triol by oral gavage. The 17α-ethynylandrost-5-ene-3β,7β,17β-triol was administered at 20 mg/kg, 40 mg/kg or 80 mg/kg twice a day for up to 28 days. At day 14 and day 28 during the dosing period an OGTT was performed.

## C#C[C@]1(O)CC[C@H]2[C@@H]3[C@@H](O)C=C4C[C@@H](O)CC[C@]4(C)[C@H]3CC[C@@]21C [17α-ethynylandrost-5-ene-3β,7β,17β-triol]
[1]
  glucose infusion rate compared to vehicle control: increased the glucose infusion rate
[2]
  reversal of the decrease in osteoprotegerin synthesis: completely reversed the decrease in osteoprotegerin synthesis
[3]; 0.1 mg/day oral gavage
  average number of lymphocytes in PLNs: 11.1×10^6 per lymph node
[3]; compound 1.0 and 0.1 mg/day, dexamethasone 5 μg/day
  IFNγ, IL-4 and IL-5 levels compared to vehicle control: increased
[4]
  glucose intolerance (OGTT glycemic excursion) vs vehicle: notably reduced glucose intolerance

Reference: patent US20080221074A1, “Drug Screen and Treatment Method” (priority 2006, published 2008)
